Data on five compounds can be found in ChEMBL document CHEMBL1201862, “PubChem BioAssay data set” (2004).

Calls of active or inactive are those of the source.

In assay [1] the target is T1, NADPH oxidase 1 (Homo sapiens, UniProt Q9Y5S8).
T1 sequence (Q9Y5S8 whole entry): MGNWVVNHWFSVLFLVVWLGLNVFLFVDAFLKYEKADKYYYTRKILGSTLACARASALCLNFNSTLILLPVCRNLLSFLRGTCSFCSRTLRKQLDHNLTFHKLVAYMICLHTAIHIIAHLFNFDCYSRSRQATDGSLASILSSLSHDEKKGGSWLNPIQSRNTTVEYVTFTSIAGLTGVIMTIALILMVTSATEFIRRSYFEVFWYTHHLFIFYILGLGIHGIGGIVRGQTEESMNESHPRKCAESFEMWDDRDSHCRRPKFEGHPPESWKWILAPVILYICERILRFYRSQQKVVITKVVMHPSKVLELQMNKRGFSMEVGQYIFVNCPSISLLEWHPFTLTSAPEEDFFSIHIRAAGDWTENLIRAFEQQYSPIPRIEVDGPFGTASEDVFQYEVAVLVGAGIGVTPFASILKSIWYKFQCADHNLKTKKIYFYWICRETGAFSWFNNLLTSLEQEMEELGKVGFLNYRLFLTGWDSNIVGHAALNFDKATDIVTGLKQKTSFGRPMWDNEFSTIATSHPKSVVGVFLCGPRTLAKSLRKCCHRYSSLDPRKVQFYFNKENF
Nature of the assay: Luminescence-based cell-based dose response assay to identify inhibitors of NADPH oxidase 1 (NOX1). Format: functional.

Assay [2] in a line: luciferase reporter signal suppression in cells – H4 neuroglioma cells, luminescence, dose response (AID 1990). Format: functional, cell-based.
Assay [3] is described as follows: Luminescence Cell-Based Dose Response HTS to Identify Inhibitors of 5'UTR Stem-Loop Driven Prion Protein mRNA Translation in H4 Neuroglioblastoma Cells. [Related pubchem assays: 1827 (Project Summary), 1813 (Primary HTS)]. Format: functional.
For assay [4], the target named is T2, Heat shock factor protein 1 (Mus musculus, UniProt P38532).
T2 sequence (P38532 whole entry): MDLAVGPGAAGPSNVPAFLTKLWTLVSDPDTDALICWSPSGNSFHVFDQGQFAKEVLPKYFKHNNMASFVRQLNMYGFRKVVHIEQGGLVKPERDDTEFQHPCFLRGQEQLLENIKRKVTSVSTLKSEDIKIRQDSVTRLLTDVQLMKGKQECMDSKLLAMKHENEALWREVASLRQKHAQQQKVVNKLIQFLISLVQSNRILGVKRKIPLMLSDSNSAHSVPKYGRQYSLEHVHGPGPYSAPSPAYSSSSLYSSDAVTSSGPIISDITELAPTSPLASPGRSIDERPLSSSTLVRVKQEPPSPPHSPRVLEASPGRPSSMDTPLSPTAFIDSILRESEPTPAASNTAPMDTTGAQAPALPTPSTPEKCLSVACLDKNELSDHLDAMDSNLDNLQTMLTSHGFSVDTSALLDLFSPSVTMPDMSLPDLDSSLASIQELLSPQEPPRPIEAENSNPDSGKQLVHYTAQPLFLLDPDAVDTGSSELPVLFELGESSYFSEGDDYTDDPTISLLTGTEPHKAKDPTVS
As to the kind of experiment: decrease of HSF1-responsive luciferase luminescence – cell-based, NIH3T3, dose retest, confirmation (AID 2382).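 Further: NIH3T3 fibroblasts with HSF1-driven luciferase reporter stressed by proteasome inhibitor MG132; luminescence from HSF1-driven luciferase expression after 8 hours of MG132 stress.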 The class given is functional.

The nature of assay [5]: alpha-synuclein stem-loop luciferase translation blockers – H4 neuroglioma cells, luminescence, confirmation (AID 1988). Format: functional, cell-based.
Assay [6] is described as follows: Luminescence-based dose response cell-based high throughput screening assay for cytotoxic compounds using the IEC-6 intestinal epithelial cell line. [Related pubchem assays: 1858 (Summary AID.), 1825 (Counterscreen.), 1907 (Confirmation screen.)]. Format: functional. (In general: The purpose of a counterscreen is to sort out artefacts and off-target activity.)
In assay [7] the target is T3, Replicative DNA helicase DnaB (Mycobacterium tuberculosis, UniProt P9WMR3).
T3 sequence (P9WMR3 whole entry): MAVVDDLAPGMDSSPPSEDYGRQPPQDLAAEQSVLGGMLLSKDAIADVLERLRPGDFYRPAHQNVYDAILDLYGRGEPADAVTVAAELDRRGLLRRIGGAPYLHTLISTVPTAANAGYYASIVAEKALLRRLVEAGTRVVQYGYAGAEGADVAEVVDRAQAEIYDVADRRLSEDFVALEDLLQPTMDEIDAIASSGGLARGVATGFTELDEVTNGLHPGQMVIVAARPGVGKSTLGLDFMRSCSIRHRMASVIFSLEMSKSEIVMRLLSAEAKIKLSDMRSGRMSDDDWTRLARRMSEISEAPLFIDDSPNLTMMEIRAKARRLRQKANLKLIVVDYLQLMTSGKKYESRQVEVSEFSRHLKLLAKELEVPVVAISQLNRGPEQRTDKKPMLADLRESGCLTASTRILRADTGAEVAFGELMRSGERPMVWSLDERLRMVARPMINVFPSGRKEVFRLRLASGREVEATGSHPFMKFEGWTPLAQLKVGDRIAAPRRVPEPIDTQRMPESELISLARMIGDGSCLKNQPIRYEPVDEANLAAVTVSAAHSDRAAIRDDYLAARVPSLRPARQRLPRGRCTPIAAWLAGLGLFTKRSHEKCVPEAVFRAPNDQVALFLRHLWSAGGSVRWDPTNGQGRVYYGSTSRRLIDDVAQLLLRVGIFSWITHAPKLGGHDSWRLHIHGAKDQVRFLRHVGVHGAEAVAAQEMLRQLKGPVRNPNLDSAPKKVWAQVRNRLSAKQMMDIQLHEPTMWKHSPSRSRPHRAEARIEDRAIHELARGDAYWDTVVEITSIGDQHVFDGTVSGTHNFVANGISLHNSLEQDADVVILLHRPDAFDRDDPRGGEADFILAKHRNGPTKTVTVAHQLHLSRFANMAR
Nature of the assay: DnaB intein splicing inhibitors, dose response, biochemical, cell-free fluorescence (AID 449749). The class given is functional.

The target in assay [8] is T4, Protein RecA (Mycobacterium tuberculosis, UniProt P9WHJ3).
T4 sequence (P9WHJ3 whole entry): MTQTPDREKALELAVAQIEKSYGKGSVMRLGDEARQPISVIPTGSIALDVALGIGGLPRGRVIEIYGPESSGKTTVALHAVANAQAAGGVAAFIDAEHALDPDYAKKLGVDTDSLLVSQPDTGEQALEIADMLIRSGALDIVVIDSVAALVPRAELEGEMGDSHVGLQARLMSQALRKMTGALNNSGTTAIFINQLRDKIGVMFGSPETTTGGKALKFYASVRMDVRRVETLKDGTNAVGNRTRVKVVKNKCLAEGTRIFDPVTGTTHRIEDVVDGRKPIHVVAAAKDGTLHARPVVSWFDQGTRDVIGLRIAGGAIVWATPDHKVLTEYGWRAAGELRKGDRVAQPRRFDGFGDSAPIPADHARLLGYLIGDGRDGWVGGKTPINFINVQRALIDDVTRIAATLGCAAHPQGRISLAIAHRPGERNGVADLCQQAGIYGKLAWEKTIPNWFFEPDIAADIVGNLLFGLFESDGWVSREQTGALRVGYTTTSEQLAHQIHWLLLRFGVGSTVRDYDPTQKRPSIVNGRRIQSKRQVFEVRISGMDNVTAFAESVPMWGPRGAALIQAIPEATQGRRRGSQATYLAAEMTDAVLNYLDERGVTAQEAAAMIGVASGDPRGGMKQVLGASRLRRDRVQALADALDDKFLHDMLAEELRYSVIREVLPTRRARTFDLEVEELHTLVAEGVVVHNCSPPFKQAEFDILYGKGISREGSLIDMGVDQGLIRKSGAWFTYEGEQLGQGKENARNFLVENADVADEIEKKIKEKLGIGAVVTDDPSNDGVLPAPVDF
As to the kind of experiment: Fluorescence Cell-Free Homogeneous Dose Retest to Identify Inhibitors of RecA-Intein Splicing Activity. [Related pubchem assays (depositor defined):AID2097, AID2223, AID489010, AID492950]. The class given is functional.

For assay [9], the target named is T5, Estrogen receptor (Homo sapiens, UniProt P03372).
T5 sequence (P03372 whole entry): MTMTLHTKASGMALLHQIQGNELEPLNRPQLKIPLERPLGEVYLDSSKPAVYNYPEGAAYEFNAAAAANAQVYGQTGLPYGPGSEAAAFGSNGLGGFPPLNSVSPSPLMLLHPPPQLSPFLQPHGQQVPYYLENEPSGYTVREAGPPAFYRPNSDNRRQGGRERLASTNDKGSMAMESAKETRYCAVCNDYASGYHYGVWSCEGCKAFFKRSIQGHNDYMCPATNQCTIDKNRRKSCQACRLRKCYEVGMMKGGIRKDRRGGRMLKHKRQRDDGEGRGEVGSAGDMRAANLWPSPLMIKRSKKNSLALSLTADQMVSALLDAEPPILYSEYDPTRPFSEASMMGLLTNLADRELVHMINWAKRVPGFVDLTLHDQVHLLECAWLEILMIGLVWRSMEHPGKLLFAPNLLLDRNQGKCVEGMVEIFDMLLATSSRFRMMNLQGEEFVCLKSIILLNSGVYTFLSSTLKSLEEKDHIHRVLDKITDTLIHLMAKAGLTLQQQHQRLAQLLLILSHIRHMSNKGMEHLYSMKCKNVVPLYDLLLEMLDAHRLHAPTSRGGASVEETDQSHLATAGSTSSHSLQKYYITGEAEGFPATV
Nature of the assay: ERα coactivator recruitment enhancers – biochemical, TR-FRET, ERα LBD, dose response (AID 737). In general terms: Time-resolved FRET reads energy transfer from a long-lived donor to a nearby acceptor.

Assay [10] concerns the target Neuropeptide Y receptor type 2 (Homo sapiens, UniProt P49146). Nature of the assay: IC50 for human NPY-Y2 blockade – cell-based, counter-screen for NPY-Y1 antagonist project, dose response (AID 1278). Format: functional.
Assay [11] has as its target Neuropeptide Y receptor type 1 (Homo sapiens, UniProt P25929). Nature of the assay: IC50 of human NPY-Y1 blockers – cell-based, dose response (AID 1277). The class given is functional.
Assay [12] in a line: viability of uninfected HEp-2 cells – cell-based, HTS, cytotoxicity control for RSV inhibitor project, dose response (AID 2410). The conditions noted are these: human respiratory syncytial virus. Format: functional.
Assay [13] has as its target T6, Corticotropin-releasing factor receptor 2/Corticotropin-releasing factor-binding protein (Homo sapiens, UniProt P24387+Q13324).
T6 sequence (Q13324 whole entry): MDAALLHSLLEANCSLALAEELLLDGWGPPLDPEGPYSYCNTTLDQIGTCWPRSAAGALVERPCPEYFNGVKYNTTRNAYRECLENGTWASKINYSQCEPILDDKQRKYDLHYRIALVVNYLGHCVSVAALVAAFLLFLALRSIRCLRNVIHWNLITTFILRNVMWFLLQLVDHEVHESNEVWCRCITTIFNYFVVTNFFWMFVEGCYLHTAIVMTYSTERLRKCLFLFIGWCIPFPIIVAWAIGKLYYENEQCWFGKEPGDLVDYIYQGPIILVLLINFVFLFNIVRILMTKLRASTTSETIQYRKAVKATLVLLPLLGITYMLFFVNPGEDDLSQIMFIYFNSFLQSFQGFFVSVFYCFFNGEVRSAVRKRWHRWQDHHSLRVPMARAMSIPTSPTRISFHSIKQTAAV
T6 sequence (P24387 whole entry): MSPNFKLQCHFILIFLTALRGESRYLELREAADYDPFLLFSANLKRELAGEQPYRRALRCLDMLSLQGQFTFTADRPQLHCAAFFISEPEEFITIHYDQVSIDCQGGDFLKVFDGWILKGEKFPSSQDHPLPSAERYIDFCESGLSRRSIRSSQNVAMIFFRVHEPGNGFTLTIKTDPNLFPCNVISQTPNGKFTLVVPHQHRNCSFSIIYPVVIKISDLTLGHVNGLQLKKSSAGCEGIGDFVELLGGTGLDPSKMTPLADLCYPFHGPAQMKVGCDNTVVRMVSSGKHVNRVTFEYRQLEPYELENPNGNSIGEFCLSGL
Nature of the assay: Dose Response confirmation of uHTS hits for small molecule antagonists of the CRF-binding protein and CRF-R2 receptor complex. Format: functional. Particulars: read-out: IC50_Mean.

For assay [14], the target named is T6, Corticotropin-releasing factor receptor 2/Corticotropin-releasing factor-binding protein. Nature of the assay: activators of CRF receptor 2 with binding protein – uHTS hits, confirmation (AID 602473). Format: functional. The conditions noted are these: read-out: EC50_Mean.
Assay [15] can be described thus: blockers of CRF-binding protein–CRF-R2 complex – cell-based, uHTS hits, 384-well, dose response (AID 651639). The class given is functional, Homo sapiens. Particulars: read-out: IC50_Mean.
A short description of assay [16]: cells.

Chain of Neuropeptide Y receptor type 1 (P25929 whole entry): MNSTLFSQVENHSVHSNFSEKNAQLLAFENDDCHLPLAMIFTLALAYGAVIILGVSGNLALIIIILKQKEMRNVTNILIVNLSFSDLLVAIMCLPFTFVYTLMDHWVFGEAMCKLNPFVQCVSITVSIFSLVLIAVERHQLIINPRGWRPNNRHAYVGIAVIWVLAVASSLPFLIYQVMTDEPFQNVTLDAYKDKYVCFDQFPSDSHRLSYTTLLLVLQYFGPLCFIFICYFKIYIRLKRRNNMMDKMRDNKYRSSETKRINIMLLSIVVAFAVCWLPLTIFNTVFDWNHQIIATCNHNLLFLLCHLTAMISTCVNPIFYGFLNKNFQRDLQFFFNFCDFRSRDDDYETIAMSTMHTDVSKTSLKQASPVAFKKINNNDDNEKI
Chain of Neuropeptide Y receptor type 2 (P49146 whole entry): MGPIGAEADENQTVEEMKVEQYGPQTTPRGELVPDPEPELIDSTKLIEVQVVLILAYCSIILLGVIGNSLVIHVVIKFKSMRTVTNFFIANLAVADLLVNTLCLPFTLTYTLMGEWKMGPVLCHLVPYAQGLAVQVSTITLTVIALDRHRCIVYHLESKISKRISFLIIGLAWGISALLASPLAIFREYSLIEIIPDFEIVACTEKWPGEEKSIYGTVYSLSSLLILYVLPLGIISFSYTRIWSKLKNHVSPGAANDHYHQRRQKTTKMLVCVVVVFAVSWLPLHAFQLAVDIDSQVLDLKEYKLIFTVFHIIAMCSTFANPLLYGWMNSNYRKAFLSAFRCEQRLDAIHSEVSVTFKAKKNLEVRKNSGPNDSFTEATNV

`CC(=NNc1ccc(C(=O)O)cc1)c1ccc2c(c1)Nc1ccccc1S2`: in assay [1], the IC50 was 0.053 µM (active).

On to `O=C1C=C(NCCN2CCOCC2)C(=O)c2cnccc21`, for which the EC50 in assay [2] is 1.99 µM (active); in assay [3] it was 6.81 µM (active); in assay [4], 10.4 µM (active); in [5], 1.88 µM (active); in assay [8] it was 0.536 µM (active). For the same compound, in assay [6], the IC50 is 0.512 µM (active). For the same compound, the AC50 in assay [7] is 0.979 µM (active).

In the case of `Cc1cc2oc(=O)cc(COC(=O)c3[nH]nc4ccccc34)c2cc1C`, the EC50 in assay [9] is 13.5 µM (active).

Consider `COc1ccccc1N(CC(=O)NC1CCCC1)C(=O)c1oc(C(C)(C)C)cc1C`, for which the IC50 in [10] is > 35 µM (not active); in assay [11] it was 30.4 µM (not active).

Consider `O=C(O)c1ccc(-c2nc(-c3ccc(Cl)cc3Cl)cs2)cc1`, for which the CC50 in assay [12] was > 50 µM (active). Besides, the IC50 was 3.82 µM (active) in assay [13], > 20 µM (inactive) in assay [15] and 44.2 µM (active) in assay [16]. For the same compound, the EC50 in assay [14] was > 53 µM (inactive).

As usually defined, the AC50 is the midpoint of the concentration-response curve, whichever way the signal moves. The CC50 is the concentration at which the toxic effect on the cells reaches its halfway point.
